According to patent publication US6855707B2, “Method for the treatment of lipid and glucose metabolism disorders” (Pliva D.D., priority 1996, dated 2005):

Key:
[1] = timed bromocriptine monotherapy, diastolic blood pressure; assay type: in vivo; conditions: humans, 4.8 mg/day at 8:00 AM
Source text: The benefits of the invention are not limited to modifying and regulating lipid and glucose metabolism. Other bodily functions, such as blood pressure, can be beneficially modified and regulated by timed administration of a D2 agonist (as monotherapy) in the dosage range disclosed above. […] Conjoined administration of a dopamine D1 agonist and […]

ob/ob mice = experiment: Example 1: two-week treatment of female ob/ob mice (40-70 g) at light onset; assay type: in vivo; conditions: single drug, two weeks at light onset
Method: Female ob/ob mice (40-70 g bw) were treated for two weeks with either 1) bromocriptine (11 mg/kg) at light onset, 2) SKF38393 (20 mg/kg) at light onset, 3) bromocriptine plus SKF38393 at light onset, or 4) vehicle at light onset.

C57BL/6 ob/ob mice = experiment: Example 2: two-week treatment of C57BL/6 ob/ob mice at 1 HALO; assay type: in vivo; conditions: for reduction of plasma free fatty acid level / reduction of plasma glucose concentration / reduction of plasma insulin level / reduction of plasma triglyceride level: mouse, in vivo; for Food Consumption / Plasma FFA / Plasma Glucose / Plasma Insulin / Plasma TG / Whole Body Lipid-Glycerol (% BW) / Whole Body Lipid-Glycerol (g) / Whole Body Protein (% BW) / Whole Body Protein (g) / Final Body Weight: ob/ob mice, two weeks; for Final Body Weight: sacrificed 24-26 hours after last treatment; for reducing body weight gain: single drug 10 mg/kg, two weeks at 1 HALO
Method: Different groups of 6-week old C57BL/6 ob/ob mice (lacking a functional leptin protein) were treated with either bromocriptine (“BC”) (10 mg/kg BW), SKF38393 (“SKF”) (10 mg/kg BW), both drugs, or vehicle for two weeks at 1 hour after light onset (HALO). Animals were held on 12-hour daily photoperiods and allowed to feed ad libitum. Food consumption was monitored daily for 3 days before the initiation of treatment throughout the 14-day treatment period. Animals were sacrificed between 1 and 3 HALO on the day following the final treatment (i.e., 24-26 hours after last injection) and plasma was collected for the analyses of insulin, glucose, and lipids while the carcasses were solubilized in ethanolic KOH and analyzed for protein and lipid content. Bromocriptine and SKF38393, individually, were ineffective in reducing body weight gain where as SKF, but not BC, reduced food consumption (19%, P<0.01). However, the combined treatment of bromocriptine and SKF38393 (BC/SKF) decreased food consumption by 46% (from 4.8±0.2 to 2.6±g/day; P<0.001) and body weight by 15% (from a 3.2 g increase in controls to a 4.3 g decrease; P<0.005) in 14 days of treatment (FIG. 16). Relative to controls, in absolute terms, the lipid content of the BC/SKF treated animals was decreased by 40% (from 4.2±0.2 to 2.5±0.3 g glycerol/animal; P<0.0003) whereas the protein content increased 8% (from 3.7±0.08 to 4.0±0.08 g/animal; P<0.05). […] This effect on body composition was observed by SKF (P<0.003) or BC (P<0.04) treatments alone, although to a lesser extent than by BC/SKF combination (P<0.05).

HMG-CoA reductase = molecular target: T1, HMG-CoA reductase (Homo sapiens, UniProt P04035); conditions: in vivo; cited from earlier work
T1 sequence (P04035 1-888): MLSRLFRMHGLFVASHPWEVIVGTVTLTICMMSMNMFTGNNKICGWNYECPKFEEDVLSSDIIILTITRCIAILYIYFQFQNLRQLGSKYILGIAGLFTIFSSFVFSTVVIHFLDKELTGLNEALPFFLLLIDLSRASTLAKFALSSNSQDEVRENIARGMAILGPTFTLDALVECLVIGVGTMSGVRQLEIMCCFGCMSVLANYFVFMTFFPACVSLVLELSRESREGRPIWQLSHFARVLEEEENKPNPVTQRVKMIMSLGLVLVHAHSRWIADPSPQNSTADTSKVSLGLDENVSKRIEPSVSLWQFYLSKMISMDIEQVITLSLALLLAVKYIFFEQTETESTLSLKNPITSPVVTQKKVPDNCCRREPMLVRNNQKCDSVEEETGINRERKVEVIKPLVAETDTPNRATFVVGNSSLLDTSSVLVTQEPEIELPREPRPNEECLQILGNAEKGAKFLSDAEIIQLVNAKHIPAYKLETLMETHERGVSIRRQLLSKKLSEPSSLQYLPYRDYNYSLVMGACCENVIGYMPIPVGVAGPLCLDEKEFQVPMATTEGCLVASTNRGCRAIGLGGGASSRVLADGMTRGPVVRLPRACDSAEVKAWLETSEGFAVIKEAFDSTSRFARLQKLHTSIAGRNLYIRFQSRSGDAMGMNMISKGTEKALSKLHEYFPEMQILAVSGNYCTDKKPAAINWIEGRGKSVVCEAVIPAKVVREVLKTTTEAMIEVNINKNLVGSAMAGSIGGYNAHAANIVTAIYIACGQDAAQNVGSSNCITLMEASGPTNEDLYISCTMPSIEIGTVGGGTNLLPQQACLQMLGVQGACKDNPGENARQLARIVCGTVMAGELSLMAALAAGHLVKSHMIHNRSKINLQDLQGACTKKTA

Structure (SMILES): CC(C)C[C@H]1C(=O)N2CCC[C@H]2[C@]2(O)O[C@](NC(=O)[C@@H]3C=C4c5cccc6[nH]c(Br)c(c56)C[C@H]4N(C)C3)(C(C)C)C(=O)N12 [bromocriptine, 2-bromo-α-ergocriptine]
- diastolic blood pressure [1]: decrease significantly
- reductions in hyperphagia, body weight gain, and obesity (ob/ob mice): moderate reductions
- reduction of plasma free fatty acid level (C57BL/6 ob/ob mice): neither BC nor SKF individually, reduced
- reduction of plasma glucose concentration (C57BL/6 ob/ob mice): 31%
- reduction of plasma insulin level (C57BL/6 ob/ob mice): 50%
- reduction of plasma triglyceride level (C57BL/6 ob/ob mice): neither BC nor SKF individually, reduced
- Food Consumption (C57BL/6 ob/ob mice): 4.5 ± 0.2^2,5 g/day
- Plasma FFA (C57BL/6 ob/ob mice): 818 ± 64^2 uM
- Plasma Glucose (C57BL/6 ob/ob mice): 262 ± 25^1 mg/dl
- Plasma Insulin (C57BL/6 ob/ob mice): 30 ± 4^2 ng/ml
- Plasma TG (C57BL/6 ob/ob mice): 405 ± 101 mg/dL
- Whole Body Lipid-Glycerol (% BW) (C57BL/6 ob/ob mice): 7.0 ± 0.2^1 % BW
- Whole Body Lipid-Glycerol (g) (C57BL/6 ob/ob mice): 3.7 ± 0.1^1 g
- Whole Body Protein (% BW) (C57BL/6 ob/ob mice): 7.5 ± 0.1^1 % BW
- Whole Body Protein (g) (C57BL/6 ob/ob mice): 4.0 ± 0.1^1 g
- Final Body Weight (C57BL/6 ob/ob mice): 53 ± 0.7^2 g
- reducing body weight gain (C57BL/6 ob/ob mice): ineffective

Structure (SMILES): CC[C@H](C)C(=O)O[C@H]1C[C@@H](C)C=C2C=C[C@H](C)[C@H](CC[C@@H]3C[C@@H](O)CC(=O)O3)[C@H]21 [lovastatin]
- increase in HDL concentrations (HMG-CoA reductase): 5-10%

Structure (SMILES): Oc1cc2c(cc1O)C(c1ccccc1)CNCC2 (centres unmarked) [SKF38393]
- reductions in hyperphagia, body weight gain, and obesity (ob/ob mice): moderate reductions
- reduction of food consumption (C57BL/6 ob/ob mice; BC 10 mg/kg, SKF 10 mg/kg, 14 days): 19%
- reduction of plasma free fatty acid level (C57BL/6 ob/ob mice): neither BC nor SKF individually, reduced
- reduction of plasma glucose concentration (C57BL/6 ob/ob mice): 43%
- reduction of plasma insulin level (C57BL/6 ob/ob mice): not affected
- reduction of plasma triglyceride level (C57BL/6 ob/ob mice): neither BC nor SKF individually, reduced
- Food Consumption (C57BL/6 ob/ob mice): 3.9 ± 0.07^3,4,5 g/day
- Plasma FFA (C57BL/6 ob/ob mice): 671 ± 36^3 uM
- Plasma Glucose (C57BL/6 ob/ob mice): 218 ± 22^2 mg/dl
- Plasma Insulin (C57BL/6 ob/ob mice): 50 ± 13 ng/mL
- Plasma TG (C57BL/6 ob/ob mice): 234 ± 22^1 mg/dl
- Whole Body Lipid-Glycerol (% BW) (C57BL/6 ob/ob mice): 6.0 ± 0.2^1 % BW
- Whole Body Lipid-Glycerol (g) (C57BL/6 ob/ob mice): 3.1 ± 0.1^1 g
- Whole Body Protein (% BW) (C57BL/6 ob/ob mice): 7.9 ± 0.1^1 % BW
- Whole Body Protein (g) (C57BL/6 ob/ob mice): 4.1 ± 0.04^2 g
- Final Body Weight (C57BL/6 ob/ob mice): 52 ± 0.7^2 g
- reducing body weight gain (C57BL/6 ob/ob mice): ineffective
